Measurements published in patent US20060276385A1, “Anti-inflammatory agents and methods of their use” (priority 2003, published 2006).

Assays:
[1] = tested on: VCAM-1; assay: VCAM-1 expression in endothelial cells; assay type: cell-based, human
Experimental: (§1) Fluorescence activated cytometry sorting (FACS) analysis: Treated cells were dissociated into single cell suspensions using 0.25% trypsin-EDTA and resuspended in a FACS buffer (Hank's buffered solution containing 5% FBS). Aliquots of cell suspensions were incubated with ICAM-1 antibody (R&D Systems) for 20 min on ice, washed twice with FACS buffer, and incubated with secondary antibody (fluorescein-5-isothiocyanate- or phycoerytherin-conjugated, Chemicon) for 20 min on ice in the dark. Then samples were washed again, fixed in 1% paraformaldehyde and analyzed by FACS (Calibur, Becton-Dickinson) using CellQuest software. The fluorescence intensity of ICAM-1 and forward cell scattering of 30,000 cells were measured and the geometric means calculated from histograms were shown. In some studies, HAEC were transfected with either BMP4 cloned in a bi-cistronic pAdTrack CMV vector or an empty vector, both expressing green fluorescent protein (GFP), using Lipofectamine 2000. In these experiments, ICAM-1 expression was measured in the red phycoerytherin channel, while the green channel was used to monitor the […] expression-GFP expression was determined by FACS analysis and fluorescence microscopy (20-30% transfection efficiency). Because expression of GFP was similar among different treatment groups within the same experiment, it was unnecessary to normalize ICAM-1 expression data to GFP level. Human recombinant noggin was purchased from R&D Systems and used in all experiments at 50 ng/ml (Dale, L., and Jones, C. M. (1999) Bioessays 21, 751-760; Zimmerman, L. B., et al. (1996) Cell 86, 599-606; Brunei, L. J., et al. (1998) Science 280, 1455-1457).
HAEC treated with OS, BMP4 or static condition were analyzed by FACS using antibodies specific to VCAM-1 (C) and E-selectin (D) as described in panel A using TNFa (1OOU/ml, for 2 hr) as a positive control.

[2] = tested on: MAE-p47−/− cells; assay: Monocyte adhesion to p47phox-null endothelial cells, with or without p47phox transfection; assay type: cell-based, mouse; conditions: 18 hrs
Experimental: (§2) Endothelial cells: Mouse aortic endothelial cells (MAEC) were cultured and used at passages 4-8 as described (Cai, H., et al. (2002) J Bio Chem 107, 48311-48317). Human aortic endothelial cells (HAEC) purchased from Clonetics were cultured using EGM-2 bullet kit (Clonetics) and used at passages 4-8. Alternatively, endothelial cells obtained from the thoracic aortas of C57/BL6 control (MAE-wt) and p47^phox-null mice (MAE-p47^−/−) were isolated and cultured as described previously (Hwang, J. et al. (2003) J Biol Chem 278:47291-8), and used between passages 4-10.
Monocyte Adhesion: Monocyte binding was determined under no-flow conditions using THP-1 monocytes (ATCC) by the method described by Chappel et al (Chappell, D. C., et al. (1998) Circ Res 82, 532-539). Briefly, THP-1 cells (5×10^5 cells/ml) were labeled with a fluorescent dye 2′,7′-bis(carboxyethyl)-5(6)-carboxyfluorescein-AM (BCECF, Molecular Probes) (1 mg/ml) in serum-free RPMI medium for 45 min at 37° C. Following exposure to shear stress or BMP treatments in the presence or absence of noggin or vehicle, the endothelial cells were washed in RPMI medium before adding BCECF-loaded THP-1 cells (1:1 ratio). After a 30 min incubation at 37° C. under no-flow conditions, unbound monocytes were removed by washing the endothelial dishes 5 times with Hank's PBS. Bound monocytes were quantified by either counting the cells under a fluorescent microscope or by measuring the fluorescent intensity of cell lysates by fluorescence spectrophotometry using a plate reader. […] Some studies were performed with MAEC pretreated with 5 μg/ml of mouse-ICAM1 antibody (YN1, Southern Biolechonology) (Kevil, C. G., et al. (2001) Am J Physiol Cell Physiol 281, C1442-1447).
Transfection of p47phox: In some studies MAE-p47^−/− cells were trasnfected withp47phox expression vector or an empty vector as described (Hwang, J. et al. (2003) J Biol Chem278-47291-8).
Next, monocyte adhesion was determined in these cells. […] After 18 hrs, cells were washed and monocyte binding was determined as described in FIG. 7. […]

[3] = tested on: MAE-wt cells; assay: H2O2 assay by oxidation of DCF-DA; assay type: cell-based, mouse; conditions: BMP4 18 hrs
Experimental: H2O2 assay: Cells grown in 6-well plates were treated with BMP4 or vehicle control for 18 hrs in the presence or absence of cell-permeable polyethylene glycol (PEG)-catalase (100 U/ml). Cells were then washed once with Hepes buffered saline solution (HBSS) followed by incubation with 7.5 μg/ml 2′, 7′-dichlorofluorescein diacetate (DCF-DA, Molecular Probes) in HBSS for 1 hr at 37 C° in the dark. Cells were washed with HBSS, incubated further for an additional 40 min in HBSS, and the DCF fluorescence intensities were measured in a Cytofluor Multi-Well plate reader (excitation at 475 nm and emission at 525 nm).
In addition, BMP4 stimulated production of H2O2 by 70% above control as determined by oxidation of DCF-DA (FIG. 10B). […] The cells were washed, incubated with DCF-DA, and the fluorescent intensities determined by fluorometry. Shown is a mean±SEM (n=3, p<0.05). In this assay, a redox cycling menadione (10 μM) was used as positive control (data not shown).

[4] = tested on: ICAM-1; assay: ICAM-1 surface expression by FACS analysis in HAEC; assay type: cell-based, human
Experimental: as §2
Shear stress studies: Confluent endothelial monolayers grown in 100 mm tissue culture dishes were exposed to an arterial level of uni-directional LS (15 dyn/cm^2) in the growth medium by rotating a Teflon cone (0.5° cone angle) as described previously. To mimic unstable shear conditions in vivo, endothelial cells were exposed to OS with directional changes of flow at 1 Hz cycle (±5 dyn/cm^2) by rotating the cone back-and-forth using a stepping motor (Servo Motor) and a computer program (DC Motor Company, Atlanta, Ga.). In some studies, 5 dyn/cm^2 unidirectional LS was used for comparison to OS (±5 dyn/cm^2).
as §1

BMP4
effect on VCAM-1 ([1]; FIG. 5E study, p>0.05, n=3): marginal at best and not significant
effect on surface expression of VCAM-1 ([1]; HAEC, FACS, TNF-α 100 U/ml for 2 hr as positive control): neither OS nor BMP4 had any effect
increase in monocyte adhesion above the control ([2]; MAE-p47−/− cells transfected with p47phox (rescued), BMP4 20 ng/ml or TNF-α 100 U/ml): 4- to 5 fold
monocyte adhesion response ([2]; MAE-p47−/− cells, BMP4 20 ng/ml): failed to stimulate monocyte adhesion
production of H2O2 above control [3]: 70%
ICAM-1 expression above vector control cells ([4]; HAEC transfected with BMP4 vector (Lipofectamine)): 3 to 4 fold
ICAM-1 expression above empty vector control ([4]; HAEC, BMP4 overexpression (transfection)): 84%
